Laboratory results from ChEMBL document CHEMBL4665758, “Identification of 5H-chromeno[3,4-c]pyridine and 6H-isochromeno[3,4-c]pyridine derivatives as potent and selective dual ROCK inhibitors” (Bioorg Med Chem Lett, 2020).

The molecules below were run against Rho-associated protein kinase 1 (Homo sapiens, UniProt Q13464).
Sequence of Rho-associated protein kinase 1 (Q13464 whole entry): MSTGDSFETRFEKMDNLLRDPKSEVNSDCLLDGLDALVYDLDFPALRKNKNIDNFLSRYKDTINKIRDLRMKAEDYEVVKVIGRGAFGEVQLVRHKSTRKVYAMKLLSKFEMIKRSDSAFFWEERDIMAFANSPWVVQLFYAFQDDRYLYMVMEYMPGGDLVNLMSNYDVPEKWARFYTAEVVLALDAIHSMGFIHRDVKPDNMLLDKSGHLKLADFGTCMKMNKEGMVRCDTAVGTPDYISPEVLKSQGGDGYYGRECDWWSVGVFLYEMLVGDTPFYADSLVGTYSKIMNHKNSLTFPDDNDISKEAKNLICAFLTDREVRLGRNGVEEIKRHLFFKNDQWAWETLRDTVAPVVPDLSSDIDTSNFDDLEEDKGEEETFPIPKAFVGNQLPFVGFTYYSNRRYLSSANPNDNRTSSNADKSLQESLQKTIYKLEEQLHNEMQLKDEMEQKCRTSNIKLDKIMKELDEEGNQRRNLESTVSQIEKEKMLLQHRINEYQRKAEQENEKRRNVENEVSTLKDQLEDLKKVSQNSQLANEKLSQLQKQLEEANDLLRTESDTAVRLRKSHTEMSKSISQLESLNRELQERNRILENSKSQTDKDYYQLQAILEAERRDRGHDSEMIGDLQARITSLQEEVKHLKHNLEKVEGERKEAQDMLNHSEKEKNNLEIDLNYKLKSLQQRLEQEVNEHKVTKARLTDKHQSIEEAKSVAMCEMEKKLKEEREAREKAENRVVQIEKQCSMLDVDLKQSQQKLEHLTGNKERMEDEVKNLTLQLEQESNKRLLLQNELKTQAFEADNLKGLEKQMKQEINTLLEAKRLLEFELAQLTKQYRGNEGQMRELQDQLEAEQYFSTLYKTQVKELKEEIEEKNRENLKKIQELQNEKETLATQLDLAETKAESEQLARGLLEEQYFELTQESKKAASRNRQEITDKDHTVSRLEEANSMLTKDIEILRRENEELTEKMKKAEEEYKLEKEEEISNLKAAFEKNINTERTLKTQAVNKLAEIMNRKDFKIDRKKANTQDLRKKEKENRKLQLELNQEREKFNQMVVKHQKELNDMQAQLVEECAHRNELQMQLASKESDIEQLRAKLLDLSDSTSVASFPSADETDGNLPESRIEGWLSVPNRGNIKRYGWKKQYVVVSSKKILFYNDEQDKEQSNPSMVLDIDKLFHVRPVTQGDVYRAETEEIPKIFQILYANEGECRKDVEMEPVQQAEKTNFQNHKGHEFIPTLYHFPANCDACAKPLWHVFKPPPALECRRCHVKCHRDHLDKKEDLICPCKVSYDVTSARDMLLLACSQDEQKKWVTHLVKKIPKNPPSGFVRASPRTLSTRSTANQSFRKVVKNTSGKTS
With N[C@@H](COc1ccc2c(c1)OCc1cnccc1-2)Cc1ccccc1 the IC50 was 71 nM.
With N[C@H](Cc1ccccc1)C(=O)Nc1ccc2c(c1)OCc1cnccc1-2 the IC50 was 19 nM.
For N[C@@H](C(=O)Nc1ccc2c(c1)OCc1cnccc1-2)c1ccccc1, the IC50 was 16 nM.
COc1cccc([C@@H](C)NC(=O)c2ccc3c(c2)C(C2CC2)Oc2cnccc2-3)c1 (some centres not stated) showed an IC50 of 4.1 nM.
COc1cccc(C(C)NC(=O)c2ccc3c(c2)OCc2cnccc2-3)n1 (configuration not stated) gave an IC50 of 27 nM.
C[C@@H](NC(=O)c1ccc2c(c1)OCc1cnccc1-2)c1ccccc1 showed an IC50 of 18 nM.
For O=C(Cc1ccccc1)Nc1ccc2c(c1)OCc1cnccc1-2, the IC50 was 140 nM.
COc1cccc([C@@H](C)NC(=O)c2ccc3c(c2)C(C)Oc2cnccc2-3)c1 (some centres not stated) gave an IC50 of 0.49 nM.
Work on COc1cccc([C@@H](C)NC(=O)c2ccc3c(c2)COc2cnc(N)cc2-3)c1 yielded an IC50 of 171 nM.
Molecule COc1cccc([C@@H](C)NC(=O)c2ccc3c(c2)COc2cncnc2-3)c1 has an IC50 of 38 nM.
CCC1Oc2cnccc2-c2ccc(C(=O)N[C@H](C)c3cccc(OC)c3)cc21 (mixture of isomers) gave an IC50 of 0.63 nM.
Work on CCN1CCC[C@H]1CNC(=O)c1cccc(CNC(=O)c2ccc3c(c2)C(C)Oc2cnccc2-3)c1 (mixture of isomers) yielded an IC50 of 1.2 nM.
With COc1cccc([C@@H](C)NC(=O)c2ccc3c(c2)OC(C)c2cnccc2-3)c1 (mixture of isomers) the IC50 was 15 nM.
CCNC(=O)c1cc(CNC(=O)c2ccc3c(c2)C(CC)Oc2cnccc2-3)ccc1F (racemic) showed an IC50 of 20 nM.
Work on CCC1Oc2cnccc2-c2ccc(C(=O)N[C@H](C)c3cccc(OC)c3)cc21 (stereo in doubt; 18) yielded an IC50 of 2 nM.
For CCC1Oc2cnccc2-c2ccc(C(=O)N[C@H](C)c3cccc(OC)c3)cc21 (stereo in doubt; 19), the IC50 was 0.67 nM.

These molecules were tested against Rho-associated protein kinase 2 (Homo sapiens, UniProt O75116).
Sequence of Rho-associated protein kinase 2 (O75116 whole entry): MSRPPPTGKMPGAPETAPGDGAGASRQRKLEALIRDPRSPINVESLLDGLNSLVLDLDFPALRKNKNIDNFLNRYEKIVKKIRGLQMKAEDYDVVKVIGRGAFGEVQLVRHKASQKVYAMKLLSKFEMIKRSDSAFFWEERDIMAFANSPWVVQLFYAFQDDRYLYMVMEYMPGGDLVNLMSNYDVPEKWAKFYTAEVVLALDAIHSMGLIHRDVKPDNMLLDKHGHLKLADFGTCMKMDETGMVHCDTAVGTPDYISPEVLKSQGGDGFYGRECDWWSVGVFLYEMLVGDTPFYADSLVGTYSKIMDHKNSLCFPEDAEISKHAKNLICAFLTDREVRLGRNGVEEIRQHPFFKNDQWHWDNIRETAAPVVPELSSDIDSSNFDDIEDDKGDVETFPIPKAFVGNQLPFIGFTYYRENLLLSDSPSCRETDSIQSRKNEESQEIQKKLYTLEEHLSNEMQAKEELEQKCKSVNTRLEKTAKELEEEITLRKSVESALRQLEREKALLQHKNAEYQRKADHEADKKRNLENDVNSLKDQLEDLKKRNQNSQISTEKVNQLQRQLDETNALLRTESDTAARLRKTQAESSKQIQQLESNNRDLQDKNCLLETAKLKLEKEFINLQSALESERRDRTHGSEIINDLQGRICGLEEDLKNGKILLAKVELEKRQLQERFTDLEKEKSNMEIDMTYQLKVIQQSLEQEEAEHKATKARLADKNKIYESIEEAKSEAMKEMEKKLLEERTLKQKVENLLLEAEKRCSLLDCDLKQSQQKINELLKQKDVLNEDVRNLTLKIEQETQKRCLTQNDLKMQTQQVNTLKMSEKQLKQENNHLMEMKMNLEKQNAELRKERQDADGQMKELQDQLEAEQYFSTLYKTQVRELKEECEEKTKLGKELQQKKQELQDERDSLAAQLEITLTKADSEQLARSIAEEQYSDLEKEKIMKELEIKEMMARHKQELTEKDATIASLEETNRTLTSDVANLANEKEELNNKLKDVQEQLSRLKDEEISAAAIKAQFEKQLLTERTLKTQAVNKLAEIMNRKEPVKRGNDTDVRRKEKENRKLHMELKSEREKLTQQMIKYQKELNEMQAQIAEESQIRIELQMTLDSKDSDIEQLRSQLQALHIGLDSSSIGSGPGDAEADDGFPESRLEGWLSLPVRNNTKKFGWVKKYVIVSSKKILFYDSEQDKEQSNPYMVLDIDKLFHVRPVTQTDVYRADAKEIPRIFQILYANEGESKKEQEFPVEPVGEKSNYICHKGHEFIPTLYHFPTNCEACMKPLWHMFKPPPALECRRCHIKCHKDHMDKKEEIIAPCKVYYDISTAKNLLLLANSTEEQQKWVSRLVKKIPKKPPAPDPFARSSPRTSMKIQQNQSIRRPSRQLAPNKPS
Molecule C[C@H]1CNCCCN1S(=O)(=O)c1cccc2cncc(F)c12 has an IC50 of 20 nM.
